The source of these data is US20230149326A1, “PHARMACEUTICAL COMPOSITION FOR PREVENTING OR TREATING MUSCULAR WEAKNESS-RELATED DISEASES COMPRISING ALVERINE, 4-HYDROXY ALVERINE, DERIVATIVE THEREOF, OR PHARMACEUTICALLY ACCEPTABLE SALT THEREOF” (AVENTI INC., priority 2020, published 2023).

Where a name gives a salt, the structure may show the parent alone.

For test [1], the system named is sarcopenia-induced mice. In words: Muscle weight measurement, sarcopenia-induced mouse. Particulars: hindlimb-immobilized mice; oral 17, 50, 150 mg/kg/day. In kind it is in vivo. How it is done:
In order to confirm a muscle strength enhancement effect of alverine citrate, sarcopenia-induced mice were administered with alverine citrate and tested for running ability. After the treadmill running test, muscle weight was measured. In particular, the hindlimb of 10 week-old C57BL/6 male mice was immobilized using a surgical stapler (Autosuture Royal 35W stapler). The staples were removed after 5 days and the mice were allowed to remobilize for 3 days. After that, running ability was measured. The mice were dosed orally with 200 μL of alverine citrate per mice at a dose of 17 mg/kg/day (AC-L), 50 mg/kg/day (AC-M) or 150 mg/kg/day (AC-H), and these mice were set as the experimental group. Untreated sarcopenia-induced mice were set as the control group (FIG. 8). The 10 week-old C57BL/6 male mice were purchased from Daehan BioLink. For muscle weight measurement, the GA and TA muscles in the hindlimb of the mice in each group were removed and weighed.

The test system of the next test is C57BL/6 male mice. Put plainly: Grip strength measurement, normal mouse. In kind it is in vivo. Particulars: oral, 4 weeks, 17, 50 or 150 mg/kg/day; compared with normal group. As for the experimental part: In order to confirm the muscle strength enhancement effect of alverine citrate, after administering alverine citrate to a mouse, the mouse was tested for motor functions such as grip strength, running, balance coordination, and the like. After motor function tests, muscle weight was measured. In particular, each of 10 week-old C57BL/6 male mice was dosed orally with 200 μL of alverine citrate for 4 weeks, at a daily dose of 17 mg/kg/day (AC-L), 50 mg/kg/day (AC-M) or 150 mg/kg/day (AC-H). This group of mice was set as the experimental group (FIG. 3). The 10 week-old C57BL/6 male mice were purchased from Daehan BioLink. Grip strength was measured using a grip strength meter for mice (Bioseb, USA). In particular, the mice were placed on a metal grid connected to an instrument panel through which grip strength can be monitored, and while pulling the mice back by tail, the grip strength by which the mice grabbed the metal grid was measured. Here, 5 consecutive, repeated measurements were recorded and an average value of the 5 measurements was calculated.

For test [2], the system named is sarcopenia-induced mice. In words: Running ability test, sarcopenia-induced mouse. The format is in vivo. Particulars: hindlimb-immobilized mice; oral 17, 50, 150 mg/kg/day. As for the experimental part:
Running ability was measured using a treadmill designed specific for this experiment. First, aversive stimuli were provided by letting electric stimuli flow at the starting point. Before the measurement, the mice were acclimatized at 8 m/min for 10 minutes. The running time was recorded by allowing mice in each group to run in separate lanes until exhaustion. Exhaustion was defined such that when the mouse stays outside the lanes for 10 seconds or more without running, the mouse was determined to be exhausted and the time was recorded. It was not possible to repeat this experiment on the same mouse. The mouse was placed on the treadmill and the test was started at 8 rpm, and the speed was accelerated by 2 rpm every 10 minutes to a maximum speed of 20 rpm. The slope of the lane started from a zero-degree incline and then was elevated to a five-degree incline after 30 min from the start. In order to confirm a muscle strength enhancement effect of alverine citrate, sarcopenia-induced mice were administered with alverine citrate and tested for running ability. After the treadmill running test, muscle weight was measured. In particular, the hindlimb of 10 week-old C57BL/6 male mice was immobilized using a surgical stapler (Autosuture Royal 35W stapler). […] After that, running ability was measured. […] Running ability was measured by the same method as in Example 2.2.

Another test concerns C2C12 cells. In words: Promotion of differentiation of myoblasts (MyHC fluorescent staining). The format is cell-based, mouse. How it is done: C2C12 (American Type Culture Collection, CRL-1772™) cells are a myoblast cell line obtained from C3H mouse and is used in myoblast differentiation research. The C2C12 cells were cultured using growth media, and then cultured using differentiation media for differentiation induction. Here, DMEM supplemented with 10% fetal bovine serum was used as growth media (GM), and DMEM supplemented with 5% horse serum (HS) was used as differentiation media (DM). In order to confirm the effect of alverine citrate on promoting the differentiation of myoblasts, C2C12 cells were dispensed in the GM of Example 1.1 and cultured for 24 hours, and then the C2C12 cells were treated with DMSO, insulin, or alverine citrate, and induced for differentiation over 3 days. […] Here, the DMSO, insulin and alverine citrate used in the experiment were all purchased from Sigma-Aldrich. The group treated with insulin was used as the positive control group. In particular, C2C12 cells were dispensed in a 6-well plate treated with the GM of Example 1.1 at a concentration of 5×10^5 cells per plate and after 24 hours, were replaced with DMEM media supplemented with 5% HS and induced for differentiation. Thereafter, the cells were treated with DMSO, insulin (1.72 μM) or alverine citrate (0.01 μM, 0.1 μM, 1 μM or 10 μM). After 3 days, after removing the media, the cells were washed with phosphate buffer solution (1× PBS) and treated with paraformaldehyde (4%) and fixed at room temperature for 15 minutes. Then, after washing three times with phosphate buffer solution (1× PBS), PBS containing 0.3% triton X-100 was treated with permeabilization buffer and allowed to react at room temperature for 10 minutes. After washing three times with phosphate buffer solution (1× PBS), PBST (blocking buffer, PBS containing 0.5% Tween 20) containing 2% bovine serum albumin was administered and allowed to react for 30 minutes to suppress nonspecific binding of antibodies. After washing with phosphate buffer (1× PBS) three times, 100 μL of primary antibodies (SC-20641, Santa Cruz Biotechnology) to MYH3 diluted to 1:500 were added and allowed to react at room temperature for 1 hour. Thereafter, after washing with phosphate buffer (1× PBS) three times, 100 μL of secondary antibodies (Goat anti-Rabbit IgG-HRP) diluted to 1:5,000 were added and allowed to react at room temperature for 1 hour. After 1 hour, for nuclear staining, after washing with phosphate buffer (1× PBS) three times, the blocking buffer was treated with diluted DAPI dye and allowed to react at room temperature for 10 minutes. Thereafter, after washing with phosphate buffer (1× PBS) three times, the washed cover glass was measured for absorbance at a wavelength of 450 nm and a fluorescent image was taken using a fluorescence microscope. The anti-MyHC antibody stained area was analyzed using imageJ (Java-based image processing program). To confirm the effect of 4-hydroxy alverine on promoting myoblast differentiation, following the same method as Example 1, DMSO, insulin (1.72 μM), alverine citrate (0.01 μM, 0.1 μM, 1 μM or 10 μM), 4-hydroxy alverine (0.01 μM, 0.1 μM, 1 μM or 10 μM) were each administered, and differentiation to myotubes and changes in myotube thickness and diameter were observed.

Turning to `CCN(CCCc1ccccc1)CCCc1ccccc1` [alverine citrate], the “GA and TA muscle weights, dependence on dose” value with sarcopenia-induced mice [1] is listed as “also increased”. Besides, the grip strength result with C57BL/6 male mice was “higher than that of the mouse in the normal group”. For the same molecule, in the test on sarcopenia-induced mice [2], the “running time, dependence on dose” value is “increased proportionally with the dose concentration”. In addition, the diameter of myotubes entry with C2C12 cells (as the treatment concentration increases (0.01, 0.1, 1, 10 μM), 3 days) was “the diameter of myotubes increased”. For the same molecule, the “differentiation of myoblasts to myotubes” value was “more differentiated to myotubes” in the test with C2C12 cells (compared with DMSO alone, 3 days, insulin 1.72 μM, alverine citrate 0.01-10 μM) and “more differentiated to myotubes” with C2C12 cells (compared with DMSO or insulin (1.72 μM), 0.01-10 μM).
